From publication PMC12260505, “First-in-Human Phase I/IIa Study of the First-in-Class CDK2/4/6 Inhibitor PF-06873600 Alone or with Endocrine Therapy in Patients with Breast Cancer” (Clinical Cancer Research, 2025)

Test: Adverse events graded by NCI CTCAE version 4.03, phase I/IIa study
Format: in vivo
Procedure: Part 1 included adult patients with HR^+/HER2^− advanced breast cancer or mBC (third- or fourth-line setting), locally recurrent/advanced or metastatic TNBC, or advanced platinum-resistant epithelial ovarian cancer/fallopian tube cancer/primary peritoneal cancer who received oral PF-06873600 at doses of 1 to 50 mg twice daily or oral PF-06873600 plus ET (letrozole or fulvestrant). Primary endpoints for part 1 dose escalation determined safety and tolerability to define dose-limiting toxicities (DLT), estimate the maximum tolerated dose, and select the recommended dose for expansion (RDE). Safety endpoints included adverse events (AE) characterized by type, frequency, severity [as graded by NCI Common Terminology Criteria for Adverse Events (CTCAE) version 4.03], timing, seriousness, and relationship to study therapy. Laboratory abnormalities were characterized by type, frequency, severity (as graded by NCI CTCAE version 4.03), timing, vital sign abnormalities, and heart rate–corrected QT interval (e.g., QTcF). Secondary endpoints included PK, preliminary antitumor activity as assessed using RECIST version 1.1, time-to-event endpoints including objective response rate (ORR), duration of response (DoR), progression-free survival (PFS), time to progression (TTP), and modulation of tumor CDK biomarkers [phosphorylated Rb (pRb), Ki67]. Exploratory endpoints included molecular profiling of tumor and ctDNA and the relationship to clinical outcome.
AEs were graded by NCI CTCAE version 4.03.

[1] = Part 2A 25 mg BID IR + Fulvestrant, N = 45
[2] = Part 2C 25 mg BID IR + Fulvestrant, N = 28

C[C@@]1(O)CCC[C@H]1n1c(=O)c(C(F)F)cc2cnc(NC3CCN(S(C)(=O)=O)CC3)nc21 [PF-06873600]
20 (44.4 ) n (%): Treatment-related TEAE, Anemia, Total [1]
12 (26.7 ) n (%): Treatment-related TEAE, Headache, Grade 1 [1] | Treatment-related TEAE, Vomiting, Grade 1 [1]
2 (7.1) n (%): Treatment-related TEAE, Alopecia, Grade 2 [2] | Treatment-related TEAE, Constipation, Grade 2 [2] | Treatment-related TEAE, Decreased appetite, Grade 1 [2] | Treatment-related TEAE, Decreased appetite, Total [2] | Treatment-related TEAE, Fatigue, Grade 3/4 [2]
3 (10.7) n (%): Treatment-related TEAE, Anemia, Grade 2 [2] | Treatment-related TEAE, Anemia, Grade 3/4 [2] | Treatment-related TEAE, Constipation, Total [2]
45 (100. 0) n (%): Treatment-related TEAE, Any adverse event, Total [1]
19 (42.2 ) n (%): Treatment-related TEAE, Any adverse event, Grade 3/4 [1]
17 (37.8 ) n (%): Treatment-related TEAE, Any adverse event, Grade 2 [1]
29 (64.4 ) n (%): Treatment-related TEAE, Nausea, Total [1]
4 (8.9) n (%): Treatment-related TEAE, Constipation, Grade 1 [1] | Treatment-related TEAE, Headache, Grade 2 [1] | Treatment-related TEAE, Neutropenia, Grade 1 [1]
9 (32.1) n (%): Treatment-related TEAE, Fatigue, Total [2] | Treatment-related TEAE, Headache, Grade 1 [2]
16 (35.6 ) n (%): Treatment-related TEAE, Alopecia, Total [1] | Treatment-related TEAE, Headache, Total [1] | Treatment-related TEAE, Vomiting, Total [1]
8 (17.8) n (%): Treatment-related TEAE, Abdominal pain, Total [1] | Treatment-related TEAE, Dizziness, Total [1] | Treatment-related TEAE, Leukopenia, Grade 2 [1]
5 (11.1) n (%): Treatment-related TEAE, Constipation, Grade 2 [1] | Treatment-related TEAE, Fatigue, Grade 3/4 [1] | Treatment-related TEAE, Neutropenia, Grade 2 [1] | Treatment-related TEAE, Thrombocytopenia, Grade 1 [1]
22 (48.9 ) n (%): Treatment-related TEAE, Nausea, Grade 1 [1] | Treatment-related TEAE, Neutropenia, Total [1]
7 (15.6) n (%): Treatment-related TEAE, Abdominal pain, Grade 1 [1] | Treatment-related TEAE, Alopecia, Grade 1 [1] | Treatment-related TEAE, Anemia, Grade 3/4 [1] | Treatment-related TEAE, Decreased appetite, Total [1] | Treatment-related TEAE, Diarrhea, Grade 1 [1]
4 (14.3) n (%): Treatment-related TEAE, Anemia, Grade 1 [2] | Treatment-related TEAE, Diarrhea, Grade 1 [2]
13 (28.9 ) n (%): Treatment-related TEAE, Fatigue, Grade 2 [1] | Treatment-related TEAE, Neutropenia, Grade 3/4 [1]
3 (6.7) n (%): Treatment-related TEAE, Anemia, Grade 1 [1] | Treatment-related TEAE, Thrombocytopenia, Grade 3/4 [1] | Treatment-related TEAE, Vomiting, Grade 2 [1]
9 (20.0) n (%): Treatment-related TEAE, Alopecia, Grade 2 [1] | Treatment-related TEAE, Any adverse event, Grade 1 [1] | Treatment-related TEAE, Constipation, Total [1]
6 (13.3) n (%): Treatment-related TEAE, Decreased appetite, Grade 1 [1] | Treatment-related TEAE, Dizziness, Grade 1 [1] | Treatment-related TEAE, Nausea, Grade 2 [1]
6 (21.4) n (%): Treatment-related TEAE, Alopecia, Grade 1 [2]
0 n (%): Treatment-related TEAE, Abdominal pain, Grade 3/4 [1] | Treatment-related TEAE, Abdominal pain, Grade 5 [1] | Treatment-related TEAE, Alopecia, Grade 3/4 [1] | Treatment-related TEAE, Alopecia, Grade 5 [1] | Treatment-related TEAE, Anemia, Grade 5 [1] | Treatment-related TEAE, Any adverse event, Grade 5 [1] | Treatment-related TEAE, Constipation, Grade 3/4 [1] | Treatment-related TEAE, Constipation, Grade 5 [1] | Treatment-related TEAE, Decreased appetite, Grade 3/4 [1] | Treatment-related TEAE, Decreased appetite, Grade 5 [1] | Treatment-related TEAE, Diarrhea, Grade 5 [1] | Treatment-related TEAE, Dizziness, Grade 3/4 [1] | Treatment-related TEAE, Dizziness, Grade 5 [1] | Treatment-related TEAE, Fatigue, Grade 5 [1] | Treatment-related TEAE, Headache, Grade 3/4 [1] | Treatment-related TEAE, Headache, Grade 5 [1] | Treatment-related TEAE, Leukopenia, Grade 5 [1] | Treatment-related TEAE, Nausea, Grade 5 [1] | Treatment-related TEAE, Neutropenia, Grade 5 [1] | Treatment-related TEAE, Thrombocytopenia, Grade 5 [1] | Treatment-related TEAE, Vomiting, Grade 5 [1] | Treatment-related TEAE, Abdominal pain, Grade 1 [2] | Treatment-related TEAE, Abdominal pain, Grade 2 [2] | Treatment-related TEAE, Abdominal pain, Grade 3/4 [2] | Treatment-related TEAE, Abdominal pain, Grade 5 [2] | Treatment-related TEAE, Abdominal pain, Total [2] | Treatment-related TEAE, Alopecia, Grade 3/4 [2] | Treatment-related TEAE, Alopecia, Grade 5 [2] | Treatment-related TEAE, Anemia, Grade 5 [2] | Treatment-related TEAE, Constipation, Grade 3/4 [2] | Treatment-related TEAE, Constipation, Grade 5 [2] | Treatment-related TEAE, Decreased appetite, Grade 2 [2] | Treatment-related TEAE, Decreased appetite, Grade 3/4 [2] | Treatment-related TEAE, Decreased appetite, Grade 5 [2] | Treatment-related TEAE, Diarrhea, Grade 3/4 [2] | Treatment-related TEAE, Diarrhea, Grade 5 [2] | Treatment-related TEAE, Dizziness, Grade 1 [2] | Treatment-related TEAE, Dizziness, Grade 3/4 [2] | Treatment-related TEAE, Dizziness, Grade 5 [2] | Treatment-related TEAE, Fatigue, Grade 2 [2] | Treatment-related TEAE, Fatigue, Grade 5 [2] | Treatment-related TEAE, Headache, Grade 2 [2]
11 (24.4 ) n (%): Treatment-related TEAE, Leukopenia, Total [1]
5 (17.9) n (%): Treatment-related TEAE, Diarrhea, Total [2]
10 (35.7 ) n (%): Treatment-related TEAE, Anemia, Total [2]
1 (3.6) n (%): Treatment-related TEAE, Any adverse event, Grade 5 [2] | Treatment-related TEAE, Constipation, Grade 1 [2] | Treatment-related TEAE, Diarrhea, Grade 2 [2] | Treatment-related TEAE, Dizziness, Grade 2 [2] | Treatment-related TEAE, Dizziness, Total [2]
1 (2.2) n (%): Treatment-related TEAE, Abdominal pain, Grade 2 [1] | Treatment-related TEAE, Decreased appetite, Grade 2 [1] | Treatment-related TEAE, Diarrhea, Grade 2 [1] | Treatment-related TEAE, Leukopenia, Grade 1 [1] | Treatment-related TEAE, Nausea, Grade 3/4 [1] | Treatment-related TEAE, Vomiting, Grade 3/4 [1]
7 (25.0) n (%): Treatment-related TEAE, Any adverse event, Grade 1 [2] | Treatment-related TEAE, Fatigue, Grade 1 [2]
24 (85.7 ) n (%): Treatment-related TEAE, Any adverse event, Total [2]
8 (28.6) n (%): Treatment-related TEAE, Alopecia, Total [2] | Treatment-related TEAE, Any adverse event, Grade 2 [2] | Treatment-related TEAE, Any adverse event, Grade 3/4 [2]
28 (62.2 ) n (%): Treatment-related TEAE, Fatigue, Total [1]
10 (22.2 ) n (%): Treatment-related TEAE, Anemia, Grade 2 [1] | Treatment-related TEAE, Diarrhea, Total [1] | Treatment-related TEAE, Fatigue, Grade 1 [1] | Treatment-related TEAE, Thrombocytopenia, Total [1]
2 (4.4) n (%): Treatment-related TEAE, Diarrhea, Grade 3/4 [1] | Treatment-related TEAE, Dizziness, Grade 2 [1] | Treatment-related TEAE, Leukopenia, Grade 3/4 [1] | Treatment-related TEAE, Thrombocytopenia, Grade 2 [1]
